Results taken from patent US5834445A, “Process for preparing decolorized carotenoid-cyclodextrin complexes” (priority 1995, dated 1998).
Entries after “also recorded” stand apart in the source; their conditions may differ.

How the values were obtained:
colon tumors = details: animals; cited from earlier work
colon polyps = details: humans; cited from earlier work
[1] = tested on: carcinogen-induced epidermoid carcinomas; details: in vivo; cited from earlier work
[2] = Aqueous solution of carotenoid with cyclodextrin, visible precipitate; type: physicochemical
Description: Twenty milligrams of β carotene is mixed with eighty milligrams (abbreviated "mg" hereinafter) of β cyclodextrin. The mixture is then added to 0.5 milliliters (hereinafter abbreviated "ml") of a buffered saline solution, and thoroughly mixed.

oral carcinoma cell = details: in at least some cases; cited from earlier work
human oral cancer cells = details: in vitro; cited from earlier work
[3] = Color and texture of prepared compositions and creams; type: physicochemical
Description: 50 milligrams of β carotene were added to 50 milligrams of vitamin E (as DL-alpha tocopherol acid succinate). To this mixture were added 50 milligrams of β cyclodextrin and 50 milligrams of gelatin derived from bovine skin (bloom 225, type III). […] Next, 1 milliliter of D20 and 1 milliliter of glycerine were added, in that order.
The mixture #1 was then added to 1 milliter of a commercial skin cream, LUBRIDERM, which contains water, mineral oil, petrolatum, sorbitol, lanolin, lanolin alcohol, triethanolamine, cetyl alcohol, butylparaben, methylparaben, propylparaben, and sodium chloride, in order of descending amount.
50 milligrams of β carotene were mixed thoroughly with 50 milligrams of β cyclodextrin. One milliliter of distilled H2 O (d-H2 O) was added to the mixture of carotene and cyclodextrin. […] Fifty milligrams of Vitamin E succinate (crystalline) were then added. […] Next, 1 milliliter of glycerine was added, followed by 150 milligrams of gelatin. […] The same skin cream base was added to composition 2 as in example 1, in the same amount.
Glycerine (1 milliliter) and/or gelatin (50 mg) were added to the mixture, followed by 1 milliliter of LUBRIDERM brand skin cream.

[4] = visual
Description: Creams containing cyclodextrin-complexed β carotene and uncomplexed β carotene were prepared by adding the respective carotene preparation to one or more of several different commercially available creams. The commercial creams used include LUBRIDERM, NOXZEMA, POND'S hand cream, POND'S Cold Cream, and NIVEA moisturizing cream. The amount of complex needed to achieve a β carotene content of 1% by weight was calculated using the measurement of percent loading for the particular complex, and this amount was added to the cream as purchased. Control samples contained 1% uncomplexed β carotene by weight of the cream.

[5] = tested on: DMBA induced squamous cell carcinoma; details: topical […] solution in mineral oil; cited from earlier work
[6] = Comparative solubility in skin cream with different solubilization mixtures; type: physicochemical; details: summary of Tables V and VI
Excerpt: The relative scale used was from 1 = completely nonsoluble, precipitate
formed, to 10 = completely soluble, no precipitate or suspension visible.
In all cases the carotene was mixed with Solvent #1 prior to mixing with
Solvent #2. This mixture was in turn combined with LUBRIDERM skin cream,

[7] = Color matching with COLOR-AID swatchbook; type: physicochemical; details: 1% β carotene, ⊕ darker, ⊖ paler than swatch
Description: Creams containing cyclodextrin-complexed β carotene and uncomplexed β carotene were prepared by adding the respective carotene preparation to one or more of several different commercially available creams. The commercial creams used include LUBRIDERM, NOXZEMA, POND'S hand cream, POND'S Cold Cream, and NIVEA moisturizing cream. The amount of complex needed to achieve a β carotene content of 1% by weight was calculated using the measurement of percent loading for the particular complex, and this amount was added to the cream as purchased. Control samples contained 1% uncomplexed β carotene by weight of the cream. […] Since the amount of β carotene by weight is the same in all the cream samples, including those to which β carotene was added in pure form and those to which the β carotene was added in the form of β carotene/cyclodextrin complex, differences in color intensity and hue are not ascribable to a simple dilution effect.
The color differences among complexed and uncomplexed β carotene and among creams containing complexed vs. uncomplexed β carotene are here characterized according to the COLOR-AID swatchbook.
In the present case, color matching was performed under fluorescent lighting of the full-spectrum type.

[8] = Absorbance loss at 450 nm of β-carotene/alpha-cyclodextrin with cysteine after 21 days; type: physicochemical; details: After 21 days at ambient conditions; UV-Vis
Description: As further described below, various amounts of cysteine were used. Spectroscopic measurements were then made of Samples C, D, E, F (Table VIII), and of a sample consisting of uncomplexed beta-carotene, which was used as a control group.
The results were measured as percent of absorbance loss at 450 nm. The percent of absorbance loss measures the intensity of absorbance. In turn, intensity of absorbance is directly correlated to oxidation and decomposition of beta-carotene.

[9] = Color matching with COLORCURVE swatches; type: physicochemical; details: cream A, same set of samples as Table I
Excerpt: In the COLORCURVE system, colors are scaled on a 3-dimensional scheme. One dimension, which for convenience here will be termed the vertical dimension, is value, defined more or less according to Munsell (op cit). The two dimensions of each plane are hue and intensity or saturation. The "hues" of the COLORCURVE system are the four primary colors of visible light: red, yellow, green and blue. Like the COLOR-AID system, the COLORCURVE system provides coded swatches for color matching. Each coded color in the COLORCURVE system is defined by light reflectance values, tristimulus values, and L*a*b* values, these being colorimetric parameters known in the art.
In the COLORCURVE code, the first number specifies the level, that is, the value of the equivalent gray tone; the level numbers increase from darker values to lighter values. For example, Level 55 colors are paler than Level 50 colors, which in turn are paler than Level 45 colors. The second and third codes each consist of a letter followed by a single-digit number. The letter identifies one of four hues (R-red, Y-yellow, B-blue, and G-green, these being the four "primary" colors in light), and the number describes the intensity of the hue. Thus, L40 R3 Y2 specifies value Level 40, red hue saturation level of 3, and yellow hue saturation level of 2 (where increasing numbers from 1 to 8 designate increasing saturation levels). […]

CC1=C(CC(=O)O)c2cc(F)ccc2/C1=C\c1ccc([S+](C)[O-])cc1 (stereo not drawn) [Sulindac, cis-5-fluoro-2-methyl-1-[p-(methyl-sulfinyl)benzylidene]indene-3-acetic acid]
growth of colon tumors (colon tumors): inhibits growth of colon tumors in animals | regression of colon polyps (colon polyps): cause regression of colon polyps in humans

Cc1c(C)c2c(c(C)c1O)CCC(C)(CCCC(C)CCCC(C)CCCC(C)C)O2 (stereo not drawn) [Vitamin E (alpha tocopherol), alpha tocopherol]
inhibition of development of carcinogen-induced epidermoid carcinomas [1]: inhibit the development of carcinogen-induced epidermoid carcinomas, and in some cases to completely prevent their growth

CC1=C(/C=C/C(C)=C/C=C/C(C)=C/C=C/C=C(C)/C=C/C=C(C)/C=C/C2=C(C)CCCC2(C)C)C(C)(C)CCC1 [β-carotene]
visible precipitate in aqueous solution ([2]; 20 mg β carotene with 80 mg β cyclodextrin, 0.5 ml buffered saline into 100 ml distilled water): clear solution with no visible precipitate | visible precipitate in aqueous solution ([2]; lesser amount or no cyclodextrin): red-brown precipitate | tumor inhibitory effects vs Vitamin A (oral carcinoma cell): superior to Vitamin A in its tumor inhibitory effects | inhibition of human oral cancer cells (human oral cancer cells): inhibit human oral cancer cells in vitro | selective killing of tumor cells over normal cells (human oral cancer cells): preferentially kill tumor cells over normal (non-tumor) cells | texture of composition or cream ([3]; final cream): does not produce undesirable color changes or grainy textures | appearance of skin cream with β carotene (previous attempts) ([3]; uncomplexed β carotene): unpleasant mustard-like appearance | color of powder [4]: deep, red to orange-red color | number and sizes of tumors [5]: reduced the number and sizes of tumors | effect of mixing with βCD on solubility in LUBRIDERM skin cream [6]: significantly increases its solubility | COLOR-AID code, LUBRIDERM [7]: RO-P2-1⊕ | COLOR-AID code, PONDS ([7]; PONDS hand/skin cream): O-S1⊕ | % Abs. Loss (at 450 nm) [8]: 42% | COLORCURVE code, A [9]: L50 R3YS; also recorded: L55 R3YS
